In series [1] the test system is Bacteria; Fungus and yeast. In words: Preservative system efficacy test (PET), summary statements. As to conditions: for preservative system efficacy test (PET) results: in fexofenadine suspension with EDTA, Ph. Eur and USP criteria. In kind it is cell-based. The method, then: (§1) To generate the formulations, the parabens of the existing formulations were replaced with the tested putative paraben replacement. The formulation stayed otherwise the same. As such, all of the preservatives were tested in combination with EDTA.
(§2) Further studies to test use of potassium sorbate for efficacy as an antimicrobial preservative were carried out in the formula with potassium sorbate in order to confirm the minimum concentration of use and definition of the specification, furthering the American and European monographs, in order to meet the different regulatory requirements of the countries in which this new formula will be submitted. The stability studies were conducted for a period of 36 months.

A short description of series [2]: Fraction of fexofenadine in zwitterion form at suspension pH. To be noted: pH between 5.8 and 7.0. The class given is physicochemical. The text has this: The conversion of anhydrous form to the zwitterion shape is controlled by the pH of the suspension, which is monitored throughout the manufacture of the product, and controlled by the addition of monobasic sodium phosphate buffers and dibasic sodium phosphate.

The test system of series [3] is Bacteria; Fungus and yeast. In words: Preservative efficacy test, criteria of the European pharmacopoeia (Ph. Eur 5.1.3). In kind it is cell-based. How it is done:
as §1, §2

Series [4] has as its system Bacteria; Fungus and yeast. In words: Preservative efficacy test, criteria of the US Pharmacopoeia (USP <51>). In kind it is cell-based. As to conditions: American pharmacopoeia criteria. How it is done: as §1, §2
The conditions of series [5]: stability studies conducted for 36 months. The method, then: as §2

`CCCCCCCCCCCC[N+](C)(C)CCOc1ccccc1` [Domiphen bromide]: the “preservative system efficacy test (PET) results” value in series [1] is listed as “good”.
On to `CC(C)(C(=O)O)c1ccc(C(O)CCCN2CCC(C(O)(c3ccccc3)c3ccccc3)CC2)cc1.Cl` (stereo not drawn) [Fexofenadine, 4-[1-hydroxy-4-[4-(hydroxydiphenylmethyl)-1-piperidinyl]-butyl]-α,α-dimethyl benzeneacetic acid hydrochloride], for which, in series [2], the “fexofenadine in the form of zwitterion” value was found to be 97%.
For the molecule `C/C=C/C=C/C(=O)[O-].[K+]` [Potassium sorbate], the “point of failure (concentration)” value in series [3] amounted to 0.3%; in series [4] it was 0.10. The “concentration considered effective as a preservative” value in series [1] (criteria of both pharmacopoeias, fexofenadine suspension with EDTA) stood at 0.4%. The “effective as preservative until (stability time)” value in series [5] is reported as 36 months.
As for `O=C([O-])c1ccccc1.[Na+]` [Sodium Benzoate, Sodium benzoate], in series [1], the “preservative system efficacy test (PET) results” value was “satisfactory”.

(Values after US20260034063A1 (Opella Healthcare Group SAS, priority 2023, published 2026).)
